Experimental data reported in patent US12048783B2, “2,4-disubstituted pyridines as malodor counteracting ingredients” (FIRMENICH SA, priority 2017, dated 2024).

Target: T1, OR4S2 (Homo sapiens, UniProt Q8NH73)
T1 construct: expressed in transfected cells
T1 sequence (Q8NH73 1-311): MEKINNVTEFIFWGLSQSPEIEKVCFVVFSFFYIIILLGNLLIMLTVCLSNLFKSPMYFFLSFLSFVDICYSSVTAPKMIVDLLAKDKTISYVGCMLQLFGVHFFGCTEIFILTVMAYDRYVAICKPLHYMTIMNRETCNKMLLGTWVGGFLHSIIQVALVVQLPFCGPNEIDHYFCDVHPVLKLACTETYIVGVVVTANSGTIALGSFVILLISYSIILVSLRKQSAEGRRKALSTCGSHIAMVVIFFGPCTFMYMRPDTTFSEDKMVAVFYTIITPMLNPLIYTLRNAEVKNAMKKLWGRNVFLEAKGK
Test: Inhibition of malodor compound induced olfactory receptor activity in stable cell lines
Format: cell-based
Conditions: inhibition of OR4S2 activity in presence of a single activating concentration of DMTS

## CCCCCc1cc(C)ccn1
  EC50: 90.3 µM
